Reference: patent US20240174618A1, “SUBSTITUTED (2-HETEROARYLOXYPHENYL)SULFONATES, SALTS THEREOF AND THEIR USE AS HERBICIDAL AGENTS” (Bayer Aktiengesellschaft, priority 2021, published 2024)

Experiments:
Type in all cases: in vivo
Veronica persica (VERPE) [1] = test: B. Herbicidal post-emergence efficacy, VERPE
Procedure: (§1) Seeds of mono- and dicotyledonous weed plants were placed in plastic pots in sandy loam soil (doubly sown with in each case one species of mono- or dicotyledonous weed plants per pot), covered with soil and cultivated in a greenhouse under controlled growth conditions. 2 to 3 weeks after sowing, the test plants were treated at the one-leaf stage. The compounds of the invention, formulated in the form of wettable powders (WP) or as emulsion concentrates (EC), were applied onto the green parts of the plants as aqueous suspension or emulsion with addition of 0.5% additive at a water application rate of 600 liters per hectare (converted). After the test plants had been kept in the greenhouse under optimum growth conditions for about 3 weeks, the activity of the preparations was rated visually in comparison to untreated controls.
(§2) For example, • 100% efficacy=plants have died, • 0% efficacy=like untreated control plants
(§3) Tables B1a to B12c below show the effects of selected inventive compounds of the general formula (I) according to table 1 on various harmful plants at an application rate corresponding to 1280 g/ha or less, which were obtained by the experimental procedure mentioned above.

[2] = system: Amaranthus retroflexus (AMARE); test: B. Herbicidal post-emergence efficacy, AMARE
Procedure: as §1, §2, §3

[3] = system: Digitaria sanguinalis (DIGSA); test: A. Herbicidal pre-emergence efficacy, DIGSA; conditions: scored visually after about 3 weeks vs untreated controls
Text: (§4) Seeds of mono- and dicotyledonous weed plants were placed in plastic pots in sandy loam soil (doubly sown with one species each of mono- or dicotyledonous weed plants per pot) and covered with soil. The compounds of the invention, formulated in the form of wettable powders (WP) or as emulsion concentrates (EC), were then applied onto the surface of the covering soil as aqueous suspension or emulsion with addition of 0.5% additive at a water application rate of 600 liters per hectare (converted). After the treatment, the pots were placed in a greenhouse and kept under good growth conditions for the test plants. After about 3 weeks, the efficacy of the preparations was scored visually in comparison with untreated controls as percentages.
(§5) For example, • 100% efficacy=plants have died, • 0% efficacy=like untreated control plants.
(§6) Tables A1a to A12c below show the effects of selected compounds of the general formula (I) according to table 1 on various harmful plants at an application rate corresponding to 1280 g/ha or less, which were obtained by the experimental procedure mentioned above.

Kochia scoparia (KCHSC) [4] = test: A. Herbicidal pre-emergence efficacy, KCHSC; conditions: pre-emergence, dosage 1280 g/ha
Text: as §4, §5, §6

Setaria viridis (SETVI) = test: A. Herbicidal pre-emergence efficacy, SETVI
Text: as §4, §5, §6

Veronica persica (VERPE) [5] = test: A. Herbicidal pre-emergence efficacy, VERPE; conditions: 1280 g/ha
Text: as §4, §5, §6

[6] = system: Amaranthus retroflexus (AMARE); test: A. Herbicidal pre-emergence efficacy, AMARE
Text: as §4, §5, §6

[7] = system: Abutilon theophrasti (ABUTH); test: B. Herbicidal post-emergence efficacy, ABUTH; conditions: rated visually after about 3 weeks
Procedure: as §1, §2, §3

Kochia scoparia (KCHSC) [8] = test: B. Herbicidal post-emergence efficacy, KCHSC; conditions: for Post-emergence efficacy against KCHSC in %: rated visually after about 3 weeks; for Post-emergence efficacy against KCHSC: 1280 g/ha
Procedure: as §1, §2, §3

Poa annua (POAAN) [9] = test: B. Herbicidal post-emergence efficacy, POAAN; conditions: 1280 g/ha
Procedure: as §1, §2, §3

Stellaria media (STEME) [10] = test: B. Herbicidal post-emergence efficacy, STEME
Procedure: as §1, §2, §3

Poa annua (POAAN) [11] = test: A. Herbicidal pre-emergence efficacy, POAAN
Text: as §4, §5, §6

[12] = system: Abutilon theophrasti (ABUTH); test: A. Herbicidal pre-emergence efficacy, ABUTH; conditions: 1280 g/ha; scored visually after about 3 weeks vs untreated controls
Text: as §4, §5, §6

Stellaria media (STEME) [13] = test: A. Herbicidal pre-emergence efficacy, STEME; conditions: dosage 1280 g/ha
Text: as §4, §5, §6

[14] = system: Echinochloa crus-galli (ECHCG); test: A. Herbicidal pre-emergence efficacy, ECHCG; conditions: 1280 g/ha; scored visually after about 3 weeks vs untreated controls
Text: as §4, §5, §6

[15] = system: Echinochloa crus-galli (ECHCG); test: B. Herbicidal post-emergence efficacy, ECHCG; conditions: rated visually after about 3 weeks
Procedure: as §1, §2, §3

Row | Compound | Post-emergence efficacy against VERPE (Veronica persica (VERPE) [1]; 1280 g/ha) [%] | Post-emergence efficacy against AMARE ([2]; 1280 g/ha) [%] | Pre-emergence efficacy against DIGSA ([3]; 1280 g/ha) [%] | Pre-emergence efficacy against KCHSC (Kochia scoparia (KCHSC) [4]) [%] | Pre-emergence efficacy against SETVI (Setaria viridis (SETVI); dosage 1280 g/ha) [%] | Pre-emergence efficacy against AMARE in % ([6]; 320 g/ha) [%] | Pre-emergence efficacy against AMARE in % ([6]; 1280 g/ha) [%] | Post-emergence efficacy against ABUTH in % ([7]; 1280 g/ha) [%] | Post-emergence efficacy against KCHSC in % (Kochia scoparia (KCHSC) [8]; 320 g/ha) [%] | Post-emergence efficacy against KCHSC (Kochia scoparia (KCHSC) [8]) [%] | Post-emergence efficacy against STEME (Stellaria media (STEME) [10]; 1280 g/ha) [%] | Post-emergence efficacy against VERPE (Veronica persica (VERPE) [1]; 320 g/ha) [%] | Post-emergence efficacy against AMARE ([2]; 80 g/ha) [%] | Post-emergence efficacy against AMARE ([2]; 320 g/ha) [%] | other results
1 | O=[N+]([O-])c1ccc(Oc2ccccc2OS(=O)(=O)CCCCl)nc1 [Example I-62] | 90 | 90 | – | – | – | – | – | – | – | – | – | – | – | – | –
2 | O=S(=O)(CCCC(F)(F)C(F)(F)F)Oc1c(Br)cccc1Oc1ncc(Cl)cn1 [Example I-67] | 100 | 100 | 90 | 100 | 100 | 100 | 100 | 100 | 100 | 100 | 100 | 100 | 100 | 100 | Pre-emergence efficacy against VERPE in % (Veronica persica (VERPE) [5]): 100%; Post-emergence efficacy against ABUTH in % ([7]; 80 g/ha): 90%; Post-emergence efficacy against ABUTH in % ([7]; 320 g/ha): 90%; Post-emergence efficacy against KCHSC in % (Kochia scoparia (KCHSC) [8]; 80 g/ha): 90%; Post-emergence efficacy against POAAN (Poa annua (POAAN) [9]): 100%; Post-emergence efficacy against STEME (Stellaria media (STEME) [10]; 320 g/ha): 100%; Post-emergence efficacy against VERPE (Veronica persica (VERPE) [1]; 80 g/ha): 90%
3 | O=S(=O)(CC=C(Cl)Cl)Oc1c(Br)cccc1Oc1ncc(Cl)cn1 [Example I-84] | 100 | 100 | – | 90 | 100 | 90 | 100 | 90 | 90 | 100 | 100 | 100 | 90 | 100 | Post-emergence efficacy against VERPE (Veronica persica (VERPE) [1]; 80 g/ha): 100%
4 | O=S(=O)(CCCCl)Oc1ccccc1Oc1ncc(Br)cc1F [Example I-65] | 90 | 90 | 90 | – | – | – | 100 | 90 | – | – | 90 | – | – | 90 | Pre-emergence efficacy against POAAN (Poa annua (POAAN) [11]; dosage 1280 g/ha): 90%
5 | N#Cc1ccc(Oc2ccccc2OS(=O)(=O)CCCCl)nc1 [Example I-58] | 90 | 90 | 90 | 90 | – | – | – | 90 | – | 90 | – | – | 90 | 90 | Pre-emergence efficacy against ABUTH [12]: 90%
6 | O=S(=O)(CCCCl)Oc1ccccc1Oc1ccc(C(F)(F)F)cn1 [Example I-63] | 90 | 90 | – | – | – | – | – | – | – | – | – | – | – | – | –
7 | O=S(=O)(CC(F)(F)F)Oc1ccccc1Oc1ncc(Cl)cn1 [Example I-4] | 100 | 90 | – | 100 | – | – | 100 | 90 | – | 90 | 90 | 90 | – | – | Post-emergence efficacy against POAAN (Poa annua (POAAN) [9]): 90%
8 | CCCCS(=O)(=O)Oc1c(OC)cccc1Oc1ncc(Cl)cn1 [Example I-17] | – | – | – | – | – | – | – | – | – | – | – | – | – | – | Pre-emergence efficacy against STEME (Stellaria media (STEME) [13]): 90%
9 | O=[N+]([O-])c1cnc(Oc2ccccc2OS(=O)(=O)CCCCl)c(F)c1 [Example I-61] | 90 | 90 | – | – | – | – | – | – | 90 | 90 | 90 | – | 90 | 90 | Pre-emergence efficacy against ECHCG [14]: 100%
10 | O=S(=O)(CC1CC1(Cl)Cl)Oc1c(Br)cccc1Oc1ncc(Cl)cn1 (stereo not drawn) [Example I-77] | 100 | 100 | 100 | – | 100 | 100 | 100 | 100 | 90 | 100 | 90 | 100 | 100 | 100 | Pre-emergence efficacy against DIGSA ([3]; 320 g/ha): 90%; Pre-emergence efficacy against POAAN (Poa annua (POAAN) [11]; dosage 320 g/ha): 100%; Pre-emergence efficacy against POAAN (Poa annua (POAAN) [11]; dosage 1280 g/ha): 100%; Pre-emergence efficacy against SETVI (Setaria viridis (SETVI); dosage 320 g/ha): 90%; Pre-emergence efficacy against STEME (Stellaria media (STEME) [13]): 90%; Post-emergence efficacy against ABUTH in % ([7]; 80 g/ha): 90%; Post-emergence efficacy against ABUTH in % ([7]; 320 g/ha): 90%; Post-emergence efficacy against ECHCG in % ([15]; 320 g/ha): 90%; Post-emergence efficacy against ECHCG in % ([15]; 1280 g/ha): 100%; Post-emergence efficacy against KCHSC in % (Kochia scoparia (KCHSC) [8]; 80 g/ha): 90%; Post-emergence efficacy against VERPE (Veronica persica (VERPE) [1]; 80 g/ha): 100%
11 | O=S(=O)(CCCCl)Oc1ccccc1Oc1ccc(Cl)cn1 [Example I-27] | 90 | 100 | 100 | 100 | 100 | 90 | 90 | – | – | 90 | 90 | 90 | – | 90 | Pre-emergence efficacy against ABUTH [12]: 90%; Pre-emergence efficacy against DIGSA ([3]; 320 g/ha): 90%; Pre-emergence efficacy against ECHCG [14]: 90%; Pre-emergence efficacy against POAAN (Poa annua (POAAN) [11]; dosage 320 g/ha): 90%; Pre-emergence efficacy against POAAN (Poa annua (POAAN) [11]; dosage 1280 g/ha): 90%; Pre-emergence efficacy against SETVI (Setaria viridis (SETVI); dosage 320 g/ha): 100%; Pre-emergence efficacy against STEME (Stellaria media (STEME) [13]): 90%; Pre-emergence efficacy against VERPE in % (Veronica persica (VERPE) [5]): 90%
